Test results: article PMC6891286, “Towards the Development of an In vivo Chemical Probe for Cyclin G Associated Kinase (GAK)” (Molecules, 2019)

Key:
Assay in all cases: KINOMEscan
Assay type in all cases: binding
Details in all cases: 35 at 1 µM; read-out: % inhibition
TNK2 = target: T1, TNK2 (Homo sapiens, UniProt Q07912)
T1 construct: purchased Eurofins DiscoverX (KINOMEscan)
Description: (§1) KinomeScan Assay on 35 was performed as previously described at EuroFins DiscoverX (Fremont, CA, USA).

PIK3CA(C420R) = target: T2, PIK3CA(C420R) (Homo sapiens, UniProt P42336, C420R)
T2 construct: purchased Eurofins DiscoverX (KINOMEscan)
T2 sequence (P42336 whole entry C420R): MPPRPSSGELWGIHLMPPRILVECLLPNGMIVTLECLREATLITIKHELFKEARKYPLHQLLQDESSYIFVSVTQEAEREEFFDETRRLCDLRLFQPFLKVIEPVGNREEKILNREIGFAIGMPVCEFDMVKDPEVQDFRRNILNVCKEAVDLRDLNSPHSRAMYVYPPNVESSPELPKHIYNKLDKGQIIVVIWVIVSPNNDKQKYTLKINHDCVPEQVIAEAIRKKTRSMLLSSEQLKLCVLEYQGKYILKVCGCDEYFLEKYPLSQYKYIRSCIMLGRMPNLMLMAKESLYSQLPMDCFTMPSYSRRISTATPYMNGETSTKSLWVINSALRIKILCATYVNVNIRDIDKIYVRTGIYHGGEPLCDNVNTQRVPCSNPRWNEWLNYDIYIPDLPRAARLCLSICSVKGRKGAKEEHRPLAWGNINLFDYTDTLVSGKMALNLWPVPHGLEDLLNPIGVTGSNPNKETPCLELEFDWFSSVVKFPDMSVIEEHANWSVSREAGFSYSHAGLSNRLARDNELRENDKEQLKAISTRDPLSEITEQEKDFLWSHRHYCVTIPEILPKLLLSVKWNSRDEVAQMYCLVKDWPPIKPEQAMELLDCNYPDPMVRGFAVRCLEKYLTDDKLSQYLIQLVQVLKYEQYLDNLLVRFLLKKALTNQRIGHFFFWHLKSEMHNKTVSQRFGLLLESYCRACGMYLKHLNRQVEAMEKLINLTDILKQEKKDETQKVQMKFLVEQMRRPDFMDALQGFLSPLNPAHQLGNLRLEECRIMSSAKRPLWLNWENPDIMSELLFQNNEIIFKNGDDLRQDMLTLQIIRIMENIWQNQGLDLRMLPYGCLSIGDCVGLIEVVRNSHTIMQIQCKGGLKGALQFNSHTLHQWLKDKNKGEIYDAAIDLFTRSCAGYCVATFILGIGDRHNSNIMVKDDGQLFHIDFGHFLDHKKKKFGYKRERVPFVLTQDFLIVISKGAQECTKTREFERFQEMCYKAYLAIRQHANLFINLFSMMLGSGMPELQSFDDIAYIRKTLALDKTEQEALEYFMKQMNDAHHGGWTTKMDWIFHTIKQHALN
Description: as §1

ABL1-phosphorylated = target: T3, ABL1-phosphorylated (Homo sapiens, UniProt P00519)
T3 construct: purchased Eurofins DiscoverX (KINOMEscan)
Description: as §1

PKN1 = target: T4, PKN1 (Homo sapiens, UniProt Q16512)
T4 construct: purchased Eurofins DiscoverX (KINOMEscan)
Description: as §1

MST1R = target: T5, MST1R (Homo sapiens, UniProt Q04912)
T5 construct: purchased Eurofins DiscoverX (KINOMEscan)
Description: as §1

EPHA2 = target: T6, EPHA2 (Homo sapiens, UniProt P29317)
T6 construct: purchased Eurofins DiscoverX (KINOMEscan)
Description: as §1

[1] = target: T7, EGFR(L747-E749del, A750P) (Homo sapiens, UniProt P00533, A750P/DEL747-749)
T7 construct: purchased Eurofins DiscoverX (KINOMEscan)
Description: as §1

[2] = target: T8, ABL1(T315I)-nonphosphorylated (Homo sapiens, UniProt P00519, T315I)
T8 construct: purchased Eurofins DiscoverX (KINOMEscan)
Description: as §1

CSF1R-autoinhibited = target: T9, CSF1R-autoinhibited (Homo sapiens, UniProt P07333)
T9 construct: purchased Eurofins DiscoverX (KINOMEscan)
T9 sequence (P07333 20-972): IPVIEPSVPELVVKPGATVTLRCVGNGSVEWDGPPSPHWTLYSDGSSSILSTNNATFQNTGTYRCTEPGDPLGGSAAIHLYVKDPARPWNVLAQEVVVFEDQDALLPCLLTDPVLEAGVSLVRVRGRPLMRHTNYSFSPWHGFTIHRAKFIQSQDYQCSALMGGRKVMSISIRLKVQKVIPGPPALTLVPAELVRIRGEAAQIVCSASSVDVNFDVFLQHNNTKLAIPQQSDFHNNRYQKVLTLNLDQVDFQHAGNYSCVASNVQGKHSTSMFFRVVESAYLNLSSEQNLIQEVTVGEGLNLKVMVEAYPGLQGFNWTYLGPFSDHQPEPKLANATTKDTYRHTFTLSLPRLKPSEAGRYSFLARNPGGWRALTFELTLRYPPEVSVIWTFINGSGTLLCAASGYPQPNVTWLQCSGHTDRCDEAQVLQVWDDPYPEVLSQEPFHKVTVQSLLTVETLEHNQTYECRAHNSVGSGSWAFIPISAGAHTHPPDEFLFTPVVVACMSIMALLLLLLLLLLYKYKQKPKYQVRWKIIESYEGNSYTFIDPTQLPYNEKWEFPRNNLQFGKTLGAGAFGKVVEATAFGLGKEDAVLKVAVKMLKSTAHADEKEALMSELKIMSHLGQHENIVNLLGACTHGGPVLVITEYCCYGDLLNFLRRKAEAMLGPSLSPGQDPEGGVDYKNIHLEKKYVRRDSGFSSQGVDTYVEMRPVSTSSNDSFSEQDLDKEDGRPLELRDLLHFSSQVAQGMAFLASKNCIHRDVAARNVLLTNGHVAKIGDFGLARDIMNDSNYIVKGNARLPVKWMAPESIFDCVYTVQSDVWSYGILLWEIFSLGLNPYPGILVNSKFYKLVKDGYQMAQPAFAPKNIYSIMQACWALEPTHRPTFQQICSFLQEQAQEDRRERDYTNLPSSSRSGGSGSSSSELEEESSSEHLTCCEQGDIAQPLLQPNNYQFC
Description: as §1

MTOR = target: T10, MTOR (Homo sapiens, UniProt P42345)
T10 construct: purchased Eurofins DiscoverX (KINOMEscan)
Description: as §1

CIT = target: T11, CIT (Homo sapiens, UniProt O14578)
T11 construct: purchased Eurofins DiscoverX (KINOMEscan)
Description: as §1

CAMK2A = target: T12, CAMK2A (Homo sapiens, UniProt Q9UQM7)
T12 construct: purchased Eurofins DiscoverX (KINOMEscan)
Description: as §1

FGFR1 = target: T13, FGFR1 (Homo sapiens, UniProt P11362)
T13 construct: purchased Eurofins DiscoverX (KINOMEscan)
Description: as §1

CDK8 = target: T14, CDK8 (Homo sapiens, UniProt P49336)
T14 construct: purchased Eurofins DiscoverX (KINOMEscan)
Description: as §1

PIP5K1C = target: T15, PIP5K1C (Homo sapiens, UniProt O60331)
T15 construct: purchased Eurofins DiscoverX (KINOMEscan)
Description: as §1

PRKD2 = target: T16, PRKD2 (Homo sapiens, UniProt Q9BZL6)
T16 construct: purchased Eurofins DiscoverX (KINOMEscan)
Description: as §1

DYRK1B = target: T17, DYRK1B (Homo sapiens, UniProt Q9Y463)
T17 construct: purchased Eurofins DiscoverX (KINOMEscan)
Description: as §1

IRAK3 = target: T18, IRAK3 (Homo sapiens, UniProt Q9Y616)
T18 construct: purchased Eurofins DiscoverX (KINOMEscan)
T18 sequence (Q9Y616 whole entry): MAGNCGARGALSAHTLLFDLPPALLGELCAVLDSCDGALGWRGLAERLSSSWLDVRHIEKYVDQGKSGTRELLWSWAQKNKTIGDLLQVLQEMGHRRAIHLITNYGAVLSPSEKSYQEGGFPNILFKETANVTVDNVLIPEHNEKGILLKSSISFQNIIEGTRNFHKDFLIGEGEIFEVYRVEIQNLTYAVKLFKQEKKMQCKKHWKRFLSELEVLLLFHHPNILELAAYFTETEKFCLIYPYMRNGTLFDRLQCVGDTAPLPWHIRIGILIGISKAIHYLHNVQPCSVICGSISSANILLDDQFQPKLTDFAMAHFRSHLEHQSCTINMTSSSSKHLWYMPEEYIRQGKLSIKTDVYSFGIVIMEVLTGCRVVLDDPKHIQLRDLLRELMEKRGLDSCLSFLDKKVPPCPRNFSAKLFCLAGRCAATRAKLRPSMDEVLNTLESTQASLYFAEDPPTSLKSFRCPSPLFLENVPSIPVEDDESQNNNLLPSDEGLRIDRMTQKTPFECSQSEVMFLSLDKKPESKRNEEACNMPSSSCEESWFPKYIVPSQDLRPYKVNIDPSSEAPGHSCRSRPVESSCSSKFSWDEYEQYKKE
Description: as §1

FLT4 = target: T19, FLT4 (Homo sapiens, UniProt P35916)
T19 construct: purchased Eurofins DiscoverX (KINOMEscan)
Description: as §1

TAK1 = target: T20, TAK1 (Homo sapiens, UniProt O43318)
T20 construct: purchased Eurofins DiscoverX (KINOMEscan)
Description: as §1

PRKG1 = target: T21, PRKG1 (Homo sapiens, UniProt Q13976)
T21 construct: purchased Eurofins DiscoverX (KINOMEscan)
Description: as §1

MARK2 = target: T22, MARK2 (Homo sapiens, UniProt Q7KZI7)
T22 construct: purchased Eurofins DiscoverX (KINOMEscan)
Description: as §1

GRK1 = target: T23, GRK1 (Homo sapiens, UniProt Q15835)
T23 construct: purchased Eurofins DiscoverX (KINOMEscan)
Description: as §1

MAP4K5 = target: T24, MAP4K5 (Homo sapiens, UniProt Q9Y4K4)
T24 construct: purchased Eurofins DiscoverX (KINOMEscan)
T24 sequence (Q9Y4K4 whole entry): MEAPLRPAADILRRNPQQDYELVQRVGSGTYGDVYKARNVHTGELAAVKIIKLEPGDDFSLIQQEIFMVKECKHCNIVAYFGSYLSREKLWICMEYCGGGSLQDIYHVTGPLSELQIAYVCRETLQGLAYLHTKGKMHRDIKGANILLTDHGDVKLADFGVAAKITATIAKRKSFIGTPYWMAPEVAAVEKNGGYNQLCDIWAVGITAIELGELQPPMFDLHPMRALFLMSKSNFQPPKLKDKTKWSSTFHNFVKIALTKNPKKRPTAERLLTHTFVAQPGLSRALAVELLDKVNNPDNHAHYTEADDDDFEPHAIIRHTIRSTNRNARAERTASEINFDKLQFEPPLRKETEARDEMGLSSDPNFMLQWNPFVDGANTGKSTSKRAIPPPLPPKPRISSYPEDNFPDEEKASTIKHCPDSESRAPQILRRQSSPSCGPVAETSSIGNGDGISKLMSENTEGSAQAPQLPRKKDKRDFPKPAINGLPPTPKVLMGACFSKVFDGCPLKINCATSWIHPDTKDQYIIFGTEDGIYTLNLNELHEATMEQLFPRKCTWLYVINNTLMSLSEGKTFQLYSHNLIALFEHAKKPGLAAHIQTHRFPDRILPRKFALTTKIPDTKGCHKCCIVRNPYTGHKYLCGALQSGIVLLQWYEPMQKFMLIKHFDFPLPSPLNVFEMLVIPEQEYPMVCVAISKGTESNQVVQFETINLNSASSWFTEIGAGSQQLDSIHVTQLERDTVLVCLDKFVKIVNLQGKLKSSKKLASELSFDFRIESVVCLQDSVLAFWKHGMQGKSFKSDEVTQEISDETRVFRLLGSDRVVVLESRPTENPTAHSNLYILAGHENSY
Description: as §1

IGF1R = target: T25, IGF1R (Homo sapiens, UniProt P08069)
T25 construct: purchased Eurofins DiscoverX (KINOMEscan)
Description: as §1

ICK = target: T26, ICK (Homo sapiens, UniProt Q9UPZ9)
T26 construct: purchased Eurofins DiscoverX (KINOMEscan)
Description: as §1

STK33 = target: T27, STK33 (Homo sapiens, UniProt Q9BYT3)
T27 construct: purchased Eurofins DiscoverX (KINOMEscan)
Description: as §1

CAMKK2 = target: T28, CAMKK2 (Homo sapiens, UniProt Q96RR4)
T28 construct: purchased Eurofins DiscoverX (KINOMEscan)
Description: as §1

BRSK1 = target: T29, BRSK1 (Homo sapiens, UniProt Q8TDC3)
T29 construct: purchased Eurofins DiscoverX (KINOMEscan)
Description: as §1

ACVR1B = target: T30, ACVR1B (Homo sapiens, UniProt P36896)
T30 construct: purchased Eurofins DiscoverX (KINOMEscan)
Description: as §1

PHKG2 = target: T31, PHKG2 (Homo sapiens, UniProt P15735)
T31 construct: purchased Eurofins DiscoverX (KINOMEscan)
Description: as §1

SRC = target: T32, SRC (Homo sapiens, UniProt P12931)
T32 construct: purchased Eurofins DiscoverX (KINOMEscan)
Description: as §1

NEK1 = target: T33, NEK1 (Homo sapiens, UniProt Q96PY6)
T33 construct: purchased Eurofins DiscoverX (KINOMEscan)
Description: as §1

DYRK1A = target: T34, DYRK1A (Homo sapiens, UniProt Q13627)
T34 construct: purchased Eurofins DiscoverX (KINOMEscan)
Description: as §1

[3] = target: T35, ABL1(F317I)-phosphorylated (Homo sapiens, UniProt P00519, F317I)
T35 construct: purchased Eurofins DiscoverX (KINOMEscan)
Description: as §1

PKMYT1 = target: T36, PKMYT1 (Homo sapiens, UniProt Q99640)
T36 construct: purchased Eurofins DiscoverX (KINOMEscan)
Description: as §1

PIK4CB = target: T37, PIK4CB (Homo sapiens, UniProt Q9UBF8)
T37 construct: purchased Eurofins DiscoverX (KINOMEscan)
T37 sequence (Q9UBF8 whole entry): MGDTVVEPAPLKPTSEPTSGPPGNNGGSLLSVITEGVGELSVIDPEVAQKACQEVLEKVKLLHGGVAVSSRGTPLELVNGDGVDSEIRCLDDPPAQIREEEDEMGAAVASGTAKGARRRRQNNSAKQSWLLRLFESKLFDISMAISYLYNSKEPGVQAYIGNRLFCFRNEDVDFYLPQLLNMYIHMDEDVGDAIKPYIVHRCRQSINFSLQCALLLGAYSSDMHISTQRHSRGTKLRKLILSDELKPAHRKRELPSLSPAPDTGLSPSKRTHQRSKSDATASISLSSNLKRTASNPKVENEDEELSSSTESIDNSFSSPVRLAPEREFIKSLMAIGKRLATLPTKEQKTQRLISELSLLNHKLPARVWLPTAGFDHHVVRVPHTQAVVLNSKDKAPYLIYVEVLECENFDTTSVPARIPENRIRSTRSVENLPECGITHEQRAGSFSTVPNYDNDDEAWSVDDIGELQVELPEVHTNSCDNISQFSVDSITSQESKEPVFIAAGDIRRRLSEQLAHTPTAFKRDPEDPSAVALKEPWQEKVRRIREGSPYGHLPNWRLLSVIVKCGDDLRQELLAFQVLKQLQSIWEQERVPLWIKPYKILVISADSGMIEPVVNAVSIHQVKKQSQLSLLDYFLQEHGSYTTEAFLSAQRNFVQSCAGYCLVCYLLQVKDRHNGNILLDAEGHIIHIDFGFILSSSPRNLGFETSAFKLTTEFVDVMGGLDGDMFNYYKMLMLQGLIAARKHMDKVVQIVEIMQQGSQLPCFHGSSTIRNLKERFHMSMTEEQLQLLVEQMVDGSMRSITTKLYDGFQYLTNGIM
Description: as §1

EPHA7 = target: T38, EPHA7 (Homo sapiens, UniProt Q15375)
T38 construct: purchased Eurofins DiscoverX (KINOMEscan)
Description: as §1

BRSK2 = target: T39, BRSK2 (Homo sapiens, UniProt Q8IWQ3)
T39 construct: purchased Eurofins DiscoverX (KINOMEscan)
Description: as §1

IRAK1 = target: T40, IRAK1 (Homo sapiens, UniProt P51617)
T40 construct: purchased Eurofins DiscoverX (KINOMEscan)
Description: as §1

SIK = target: T41, SIK (Homo sapiens, UniProt P57059)
T41 construct: purchased Eurofins DiscoverX (KINOMEscan)
T41 sequence (P57059 whole entry): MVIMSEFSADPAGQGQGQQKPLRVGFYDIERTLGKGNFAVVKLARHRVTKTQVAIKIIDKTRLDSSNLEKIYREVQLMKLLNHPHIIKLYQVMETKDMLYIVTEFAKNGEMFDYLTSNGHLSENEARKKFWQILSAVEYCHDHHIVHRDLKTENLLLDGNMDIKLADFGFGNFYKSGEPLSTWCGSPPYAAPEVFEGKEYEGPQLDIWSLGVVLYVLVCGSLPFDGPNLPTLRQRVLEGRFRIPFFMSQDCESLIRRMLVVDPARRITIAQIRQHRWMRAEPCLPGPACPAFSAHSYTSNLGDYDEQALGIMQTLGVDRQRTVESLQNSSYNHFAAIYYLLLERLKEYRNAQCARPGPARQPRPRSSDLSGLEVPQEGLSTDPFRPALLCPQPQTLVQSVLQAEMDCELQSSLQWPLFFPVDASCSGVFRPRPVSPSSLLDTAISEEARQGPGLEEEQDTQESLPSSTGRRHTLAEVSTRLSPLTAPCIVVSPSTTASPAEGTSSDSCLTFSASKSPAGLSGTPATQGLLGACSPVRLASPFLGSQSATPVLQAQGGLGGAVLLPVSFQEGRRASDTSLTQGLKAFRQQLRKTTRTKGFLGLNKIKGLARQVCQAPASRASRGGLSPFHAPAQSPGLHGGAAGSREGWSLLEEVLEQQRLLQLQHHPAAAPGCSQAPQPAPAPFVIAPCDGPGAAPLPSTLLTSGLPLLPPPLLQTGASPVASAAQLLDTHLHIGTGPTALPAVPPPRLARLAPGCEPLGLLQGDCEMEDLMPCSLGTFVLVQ
Description: as §1

NLK = target: T42, NLK (Homo sapiens, UniProt Q9UBE8)
T42 construct: purchased Eurofins DiscoverX (KINOMEscan)
Description: as §1

SGK = target: T43, SGK (Homo sapiens, UniProt O00141)
T43 construct: purchased Eurofins DiscoverX (KINOMEscan)
Description: as §1

What does the source list for `Brc1ccc2nccc(Nc3ccc4cn[nH]c4c3)c2c1` [Compound 35, 6-Bromo-N-(1H-indazol-6-yl)quinolin-4-amine]?
activity at 1 µM (TNK2): 95%; activity at 1 µM (PIK3CA(C420R)): 100%; activity at 1 µM (ABL1-phosphorylated): 46%; activity at 1 µM (PKN1): 100%; activity at 1 µM (MST1R): 100%; activity at 1 µM (EPHA2): 100%; activity at 1 µM [1]: 81%; activity at 1 µM [2]: 100%; activity at 1 µM (CSF1R-autoinhibited): 100%; activity at 1 µM (MTOR): 100%; activity at 1 µM (CIT): 86%; activity at 1 µM (CAMK2A): 100%; activity at 1 µM (FGFR1): 100%; activity at 1 µM (CDK8): 83%; activity at 1 µM (PIP5K1C): 95%; activity at 1 µM (PRKD2): 90%; activity at 1 µM (DYRK1B): 100%; activity at 1 µM (IRAK3): 100%; activity at 1 µM (FLT4): 100%; activity at 1 µM (TAK1): 100%; activity at 1 µM (PRKG1): 100%; activity at 1 µM (MARK2): 100%; activity at 1 µM (GRK1): 68%; activity at 1 µM (MAP4K5): 100%; activity at 1 µM (IGF1R): 100%; activity at 1 µM (ICK): 100%; activity at 1 µM (STK33): 100%; activity at 1 µM (CAMKK2): 100%; activity at 1 µM (BRSK1): 100%; activity at 1 µM (ACVR1B): 100%; activity at 1 µM (PHKG2): 95%; activity at 1 µM (SRC): 97%; activity at 1 µM (NEK1): 100%; activity at 1 µM (DYRK1A): 77%; activity at 1 µM [3]: 100%; activity at 1 µM (PKMYT1): 100%; activity at 1 µM (PIK4CB): 100%; activity at 1 µM (EPHA7): 100%; activity at 1 µM (BRSK2): 100%; activity at 1 µM (IRAK1): 100%; activity at 1 µM (SIK): 100%; activity at 1 µM (NLK): 100%; activity at 1 µM (SGK): 100%
